We go through seven compounds from ChEMBL document CHEMBL6078628, “A perspective on the development of small molecular neprilysin inhibitors (NEPi) with emphasis on cardiorenal disease” (Eur J Med Chem, 2024).

Each structure is given as a SMILES string.

For experiment [1], the target named is T1, Neprilysin (Homo sapiens, UniProt P08473). In words: Inhibition of NEP (unknown origin).
The target of experiment [2] is T1, Neprilysin. In words: Binding affinity to NEP (unknown origin) assessed as inhibition constant.
The target of experiment [3] is T2, Type-2 angiotensin II receptor (Homo sapiens, UniProt P50052).
T2 sequence (P50052 whole entry): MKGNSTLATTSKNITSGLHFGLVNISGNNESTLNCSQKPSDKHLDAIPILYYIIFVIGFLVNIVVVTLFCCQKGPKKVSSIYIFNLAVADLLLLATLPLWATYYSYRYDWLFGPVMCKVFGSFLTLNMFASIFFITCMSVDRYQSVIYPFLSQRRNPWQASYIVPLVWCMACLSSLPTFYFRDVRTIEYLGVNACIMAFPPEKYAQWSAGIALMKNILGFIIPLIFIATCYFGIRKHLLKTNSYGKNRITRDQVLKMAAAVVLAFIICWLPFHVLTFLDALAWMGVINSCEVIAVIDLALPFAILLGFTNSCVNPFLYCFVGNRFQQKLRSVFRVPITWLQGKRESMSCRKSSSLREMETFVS
In words: Inhibition of Angiotensin-2 receptor (unknown origin).

T1 sequence (P08473 whole entry): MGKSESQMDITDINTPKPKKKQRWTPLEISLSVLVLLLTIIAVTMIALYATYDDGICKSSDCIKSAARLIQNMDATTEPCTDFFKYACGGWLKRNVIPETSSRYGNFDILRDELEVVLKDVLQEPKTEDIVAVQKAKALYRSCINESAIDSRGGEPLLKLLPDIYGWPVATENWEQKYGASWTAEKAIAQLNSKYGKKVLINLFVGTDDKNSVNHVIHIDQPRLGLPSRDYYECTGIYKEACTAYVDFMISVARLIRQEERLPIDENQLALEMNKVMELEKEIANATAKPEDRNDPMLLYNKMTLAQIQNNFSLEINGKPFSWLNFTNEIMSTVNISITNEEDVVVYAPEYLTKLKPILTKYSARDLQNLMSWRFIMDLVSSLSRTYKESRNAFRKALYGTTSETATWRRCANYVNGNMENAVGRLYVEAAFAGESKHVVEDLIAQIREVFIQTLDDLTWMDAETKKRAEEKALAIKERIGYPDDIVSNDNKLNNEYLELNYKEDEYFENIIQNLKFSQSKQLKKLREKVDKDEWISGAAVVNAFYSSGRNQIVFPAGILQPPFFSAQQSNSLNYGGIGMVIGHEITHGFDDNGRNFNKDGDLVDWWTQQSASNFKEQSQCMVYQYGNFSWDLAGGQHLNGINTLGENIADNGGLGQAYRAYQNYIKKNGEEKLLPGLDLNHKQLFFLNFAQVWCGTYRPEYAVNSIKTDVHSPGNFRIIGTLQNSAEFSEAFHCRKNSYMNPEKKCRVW

With `SC[C@@H](Cc1ccccc1)c1nc2cnccc2[nH]1`, 40 nM corresponded to half-maximal inhibition against Neprilysin [1] (IC50).
Turning to `COCCOC[C@H](CC1(C(=O)N[C@H]2CC[C@@H](C(=O)O)CC2)CCCC1)C(=O)O` [CANDOXATRILAT], the Ki at Neprilysin [2] came to 6.1 nM.
Consider `COc1cc(/C=C2\CCC/C(=C\c3ccc(O)c(OC)c3)C2=O)ccc1O` [CYCLOVALONE], for which the Ki at Neprilysin [2] is 0.64 nM.
The compound `COC(c1ccccc1)c1cnc(C(CS)Cc2ccccc2)[nH]1` (stereo not drawn) came in with a half-inhibitory concentration (IC50) against Neprilysin [1] of 1700 nM.
Same read-out and setting: the figure for `SC[C@@H](Cc1ccc(-c2ccccc2)cc1)c1nc2cnccc2[nH]1` is 30 nM.
For `N[C@@H](Cc1ccc(Oc2cc(I)c(O)c(I)c2)c(I)c1)C(=O)O` [REVERSE TRIIODOTHYRONINE], inhibition in experiment [3] was half-maximal at 29800 nM (IC50).
Turning to `O=C(N[C@H]1CCS[C@H]2CCC[C@@H](C(=O)O)N2C1=O)[C@@H](S)Cc1ccccc1` [OMAPATRILAT], the Ki on Neprilysin [2] came out at 0.45 nM. At Neprilysin [1], this compound showed an IC50 of 5 nM.
